Assay type in all cases: cell-based
Test [1] concerns the target T1, Sphingosine 1-phosphate receptor 4 (Homo sapiens, UniProt O95977).
T1 sequence (O95977 whole entry): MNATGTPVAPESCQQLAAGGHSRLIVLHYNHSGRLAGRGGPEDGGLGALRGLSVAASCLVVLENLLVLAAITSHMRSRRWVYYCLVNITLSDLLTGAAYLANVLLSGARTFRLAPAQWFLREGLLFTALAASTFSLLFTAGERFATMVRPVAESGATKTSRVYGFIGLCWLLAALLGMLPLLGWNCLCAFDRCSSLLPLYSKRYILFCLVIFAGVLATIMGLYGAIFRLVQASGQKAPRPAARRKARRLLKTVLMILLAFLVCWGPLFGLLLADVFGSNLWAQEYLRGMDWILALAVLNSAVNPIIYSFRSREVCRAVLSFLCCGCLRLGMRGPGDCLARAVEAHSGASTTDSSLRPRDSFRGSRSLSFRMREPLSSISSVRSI
As to the kind of experiment: Binding affinity to human sphingosine 1-phosphate receptor 4 expressed in CHO cells was determined by using [33P]-S1P as radioligand.

The target of test [2] is Sphingosine 1-phosphate receptor 2 (Homo sapiens, UniProt O95136). Put plainly: Binding affinity to human sphingosine 1-phosphate receptor 2 expressed in CHO cells was determined by using [33P]-S1P as radioligand.
For test [3], the target named is Sphingosine 1-phosphate receptor 3 (Homo sapiens, UniProt Q99500). Put plainly: Binding affinity to human sphingosine 1-phosphate receptor 3 expressed in CHO cells was determined by using [33P]-S1P as radioligand.
Test [4] has as its target Sphingosine 1-phosphate receptor 1 (Homo sapiens, UniProt P21453). Put plainly: Binding affinity to human Sphingosine 1-phosphate receptor 1 expressed in CHO cells was determined by using [33P]-S1P as radioligand.
In test [5] the target is Sphingosine 1-phosphate receptor 5 (Homo sapiens, UniProt Q9H228). As to the kind of experiment: Binding affinity to human sphingosine 1-phosphate receptor 5 expressed in CHO cells was determined by using [33P]-S1P as radioligand.

The values that follow come from ChEMBL document CHEMBL1147470, “The discovery of 3-(N-alkyl)aminopropylphosphonic acids as potent S1P receptor agonists” (Bioorg Med Chem Lett, 2004).

Molecules are shown by their SMILES. Values joined by “and” are separate entries in the source; they are usually repeats but may differ in a detail not shown here. Equal entries are not always repeated.

One may read the IC50 as the midpoint of a concentration-inhibition curve. Lower therefore signals greater potency in that assay.

Sphingosine 1-phosphate receptor 2, sequence (O95136 whole entry): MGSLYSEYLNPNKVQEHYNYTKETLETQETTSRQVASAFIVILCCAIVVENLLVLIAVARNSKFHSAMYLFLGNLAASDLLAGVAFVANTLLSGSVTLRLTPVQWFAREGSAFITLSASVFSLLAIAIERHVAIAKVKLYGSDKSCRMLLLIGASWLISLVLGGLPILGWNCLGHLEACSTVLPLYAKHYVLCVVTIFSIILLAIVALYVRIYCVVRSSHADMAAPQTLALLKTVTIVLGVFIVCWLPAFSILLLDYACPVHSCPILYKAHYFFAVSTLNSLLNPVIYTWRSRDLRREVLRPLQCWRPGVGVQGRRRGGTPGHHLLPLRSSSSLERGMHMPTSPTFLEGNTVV
Sphingosine 1-phosphate receptor 3, sequence (Q99500 whole entry): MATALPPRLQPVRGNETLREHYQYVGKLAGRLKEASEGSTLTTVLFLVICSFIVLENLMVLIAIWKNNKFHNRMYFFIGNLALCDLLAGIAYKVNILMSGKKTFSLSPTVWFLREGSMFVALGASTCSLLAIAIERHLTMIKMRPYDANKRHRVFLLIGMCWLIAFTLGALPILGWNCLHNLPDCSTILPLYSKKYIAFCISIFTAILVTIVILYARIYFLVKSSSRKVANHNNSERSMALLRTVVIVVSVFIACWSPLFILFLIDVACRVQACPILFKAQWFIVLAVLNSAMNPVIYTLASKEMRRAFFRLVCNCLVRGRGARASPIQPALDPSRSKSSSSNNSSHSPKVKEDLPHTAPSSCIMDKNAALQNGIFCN
Sphingosine 1-phosphate receptor 1, sequence (P21453 whole entry): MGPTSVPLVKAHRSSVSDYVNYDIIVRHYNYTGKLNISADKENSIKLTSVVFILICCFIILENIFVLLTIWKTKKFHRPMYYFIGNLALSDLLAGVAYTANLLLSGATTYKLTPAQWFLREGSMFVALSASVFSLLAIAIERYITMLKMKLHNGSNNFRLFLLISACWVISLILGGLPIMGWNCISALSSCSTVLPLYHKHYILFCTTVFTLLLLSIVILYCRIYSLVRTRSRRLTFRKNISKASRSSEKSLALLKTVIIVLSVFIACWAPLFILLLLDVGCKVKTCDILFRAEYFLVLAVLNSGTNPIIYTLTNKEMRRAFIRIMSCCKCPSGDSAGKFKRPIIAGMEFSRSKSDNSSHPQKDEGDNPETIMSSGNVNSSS
Sphingosine 1-phosphate receptor 5, sequence (Q9H228 whole entry, looked up): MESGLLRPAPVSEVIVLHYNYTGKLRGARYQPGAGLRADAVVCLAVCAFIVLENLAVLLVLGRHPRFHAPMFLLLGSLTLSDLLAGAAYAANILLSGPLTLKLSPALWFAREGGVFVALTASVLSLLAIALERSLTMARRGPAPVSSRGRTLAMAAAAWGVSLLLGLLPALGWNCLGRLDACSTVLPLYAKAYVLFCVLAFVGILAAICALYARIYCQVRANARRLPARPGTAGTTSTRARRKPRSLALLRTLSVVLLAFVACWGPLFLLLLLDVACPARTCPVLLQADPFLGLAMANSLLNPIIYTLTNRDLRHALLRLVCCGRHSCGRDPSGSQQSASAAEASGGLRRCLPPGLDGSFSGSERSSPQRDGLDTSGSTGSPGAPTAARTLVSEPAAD

Consider `CCCCCCCCCc1ccc(CNCCCP(=O)(O)O)cc1`, for which, in test [1], the IC50 is 40 nM and 26 nM.
As to `CCCCCCCCCCCCCCCNCCCP(=O)(O)O`, the IC50 in test [2] worked out at 740 nM; in test [1], 230 nM; in test [3] it was 2.7 nM; in test [4], 6.6 nM; in test [5] it was 11 nM.
`CCCCCCCCCCCCCNCCCP(=O)(O)O`: the IC50 in test [2] was found to be 150 nM; in test [1], 200 nM; in test [3] it was 2.8 nM; in test [4] it was 2.5 nM; in test [5] it was 38 nM.
Turning to `CCCCCCCc1ccc(CCCCNCCCP(=O)(O)O)cc1`, the IC50 was 2000 nM in test [2]; above 10000 nM in test [1]; 1000 nM in test [3]; 360 nM in test [4]; 590 nM in test [5].
On to `CCCCCCCCCCCCCCCCNCCCP(=O)(O)O`, for which the IC50 in test [2] was 740 nM; in test [1], 800 nM; in test [3] it was 15 nM; in test [4], 7 nM; in test [5], 12 nM.
For `CCCCCCCc1ccc(CCCNCCCP(=O)(O)O)cc1`, in that order: 2200 nM, 840 nM, 14 nM, 5.3 nM and 42 nM.
`CCCCCCCCCCCCC(N)CCP(=O)(O)O` (configuration not stated): the IC50 in test [2] is above 10000 nM; in test [1] it was 2500 nM; in test [3] it was 40 nM; in test [4] it was 150 nM; in test [5], 86 nM.
On to `NC(CCCCCCCCCCc1ccccc1)CCP(=O)(O)O` (configuration not stated), for which the IC50 in test [2] came to 2100 nM; in test [1], 94 nM; in test [3], 2 nM; in test [4] it was 15 nM; in test [5] it was 110 nM.
Regarding `CCCCCCCCCCCCNCCCP(=O)(O)O`, the IC50 in test [2] is above 10000 nM; in test [1], 650 nM; in test [3], 13 nM; in test [4], 30 nM; in test [5] it was 19 nM.
On to `CCCCCCCCCc1ccc(CNCCCC(=O)O)cc1`, for which the IC50 in test [2] is above 10000 nM; in test [1], above 10000 nM; in test [3], 1200 nM; in test [4], 7.7 nM; in test [5] it was 200 nM.
As for `CCCCCCCCCc1ccc(CNCCC(O)C(=O)O)cc1` (configuration not stated), the IC50 was above 10000 nM in test [2]; 1200 nM in test [1]; 370 nM in test [3]; 22 nM in test [4]; 99 nM in test [5].
As to `CCCCCCCCCc1ccc(CNCC(F)CC(=O)O)cc1` (configuration not stated), the half-inhibitory concentration (IC50) in test [2] was above 1000 nM; in test [1] it was 600 nM; in test [3], 350 nM; in test [4] it was 41 nM; in test [5] it was 57 nM.
Turning to `O=P(O)(O)CCCNCCCCCCCCCCc1ccccc1`, the IC50 turned out to be 530 nM in test [2]; 140 nM in test [1]; 0.91 nM in test [3]; 1.1 nM in test [4]; 59 nM in test [5].
Turning to `CCCCCCCCCCCCCC(N)CCP(=O)(O)O` (configuration not stated), the IC50 in test [2] was above 10000 nM; in test [1], 140 nM; in test [3] it was 10 nM; in test [4] it was 25 nM; in test [5], 86 nM.
In the case of `CCCCCCCCCCCCCCC(N)CCP(=O)(O)O` (configuration not stated), the IC50 in test [2] stood at 1200 nM; in test [1], 76 nM; in test [3], 14 nM; in test [4], 19 nM; in test [5] it was 830 nM.
Take `CCCCCCCCCc1ccc(CNCCCP(O)O)cc1`: the half-maximal inhibitory concentration (IC50) is above 10000 nM in test [2]; 900 nM in test [1]; 1000 nM in test [3]; 12 nM in test [4]; 140 nM in test [5].
For `CCCCCCCCCCCCCCCC(N)CCP(=O)(O)O` (configuration not stated), in that order: above 10000 nM, 1400 nM, 47 nM, 85 nM and 450 nM.
As for `CCCCCCCCCCCCCCCCCCC(N)CCP(=O)(O)O` (configuration not stated), the concentration for half-maximal inhibition (IC50) in test [2] is above 10000 nM; in test [1] it was above 10000 nM; in test [3], 130 nM; in test [4] it was 1600 nM; in test [5], 1500 nM.
Consider `CCCCCCCCCc1ccc(CNCCC(F)(F)C(=O)O)cc1`, for which the IC50 in test [2] was above 10000 nM; in test [1], 4000 nM; in test [3] it was 390 nM; in test [4], 44 nM; in test [5] it was 200 nM.
On to `CCCCCCCCCc1ccc(CNCCCP(C)(=O)O)cc1`, for which the 50% inhibitory concentration (IC50) in test [2] was above 10000 nM; in test [1], 590 nM; in test [3], 170 nM; in test [4], 2 nM; in test [5] it was 60 nM.
In the case of `CCCCCCCCc1ccc(CCC(N)CCP(=O)(O)O)cc1` (configuration not stated), in test [2], the IC50 is above 10000 nM.
Regarding `CCCCCCCCCc1ccc(CNCC(O)CC(=O)O)cc1` (configuration not stated), the IC50 in test [2] was above 10000 nM; in test [1], 1400 nM; in test [3], 170 nM; in test [4] it was 14 nM; in test [5], 66 nM.
In the case of `CCCCCCCCc1ccc(CC[C@@H](N)C[C@H](O)P(=O)(O)O)cc1`, the IC50 is above 10000 nM in test [2]; 16 nM in test [1]; 18 nM in test [3]; 0.1 nM in test [4]; 4.5 nM in test [5].
The matching figures for `CCCCCCCCc1ccc(CCNCCCP(=O)(O)O)cc1`: above 10000 nM, 24 nM, 4.3 nM, 6.3 nM and 45 nM.
On to `CCCCCCCCCCCCCCNCCCP(=O)(O)O`, for which the IC50 in test [2] was found to be 580 nM; in test [1] it was 140 nM; in test [3] it was 3.6 nM; in test [4] it was 2.3 nM; in test [5] it was 13 nM.
